{"source": "paper PMC11214510", "about": "(Saudi Journal of Biological Sciences, 2024)", "origin": "cited, not measured here", "tested_on": "AChE", "details": "mice, long-term supplementation, 40 mg/kg; ref Kasbe et al., 2015"}
{"molecule": "O=c1c2cc(O)c(O)cc2oc2cc(O)c([C@@H]3O[C@H](CO)[C@@H](O)[C@H](O)[C@H]3O)c(O)c12", "note": "[mangiferin]", "values": [{"measurement": "AChE expression produced by AlCl3", "value": "inhibits the expression of AChE"}]}
